Results from the NIST ThermoML archive (doi:10.1016/j.jct.2013.04.009).

Experiments:
[1] = Ring tensiometer
[2] = xn = mol fraction of the nth substance listed; conditions: Ring tensiometer

CCCCO [butan-1-ol]
[1]
Conditions	surface tension liquid-gas [mN/m]
288.15 K	24.28
298.15 K	23.48
308.15 K	22.4
318.15 K	21.64
328.15 K	20.56

C[S+](C)[O-] [dimethyl sulfoxide]
[1]
Conditions	surface tension liquid-gas [mN/m]
288.15 K	43.68
298.15 K	42.18
308.15 K	41.11
318.15 K	39.99
328.15 K	38.72

C[S+](C)[O-] [dimethyl sulfoxide] + CCCCO
surface tension liquid-gas [mN/m], [2]
Conditions	288.15 K	298.15 K	308.15 K	318.15 K	328.15 K
x2 = 0.0373	39.63	38.43	38.16	36.84	36.19
x2 = 0.1042	36.3	35.44	34.43	33.54	32.99
x2 = 0.2136	32.33	32.03	30.37	30.79	29.37
x2 = 0.3353	30.13	29.72	28.82	28.06	27.19
x2 = 0.449	28.57	27.92	27.16	26.61	25.8
x2 = 0.5461	27.41	26.74	25.98	25.33	24.35
x2 = 0.614	26.65	26.06	25.27	24.55	23.85
x2 = 0.6643	26.18	25.55	24.84	23.98	23.3
x2 = 0.703	25.77	25.17	24.41	23.6	22.56
x2 = 0.8512	25.14	24.33	23.41	22.28	20.86
x2 = 0.9521	24.57	23.98	22.68	21.94	20.55

C[S+](C)[O-] [dimethyl sulfoxide] + CCCO
surface tension liquid-gas [mN/m], [2]
Conditions	288.15 K	298.15 K	308.15 K	318.15 K	328.15 K
x2 = 0.0454	40.3	39.39	37.85	36.89	36.64
x2 = 0.1248	36.24	35.91	34.14	33.79	33.37
x2 = 0.2498	33.09	32.37	31.06	30.95	30.07
x2 = 0.3821	30.1	29.48	28.96	28.33	27.01
x2 = 0.4997	28.34	27.81	27.06	26.41	25.5
x2 = 0.5959	27.14	26.34	25.67	25.02	24.15
x2 = 0.661	26.33	25.7	24.6	24.15	23.35
x2 = 0.7081	25.71	25.17	24.41	23.65	22.77
x2 = 0.7437	25.25	24.74	23.97	23.15	22.45
x2 = 0.8523	24.28	23.5	22.89	22.34	21.64
x2 = 0.9519	23.55	22.58	22.13	21.5	20.28

CCCCCCO [hexan-1-ol]
[1]
Conditions	surface tension liquid-gas [mN/m]
288.15 K	25.38
298.15 K	24.51
308.15 K	23.86
318.15 K	23.02
328.15 K	22.33

CCCCCCO [hexan-1-ol] + C[S+](C)[O-]
surface tension liquid-gas [mN/m], [2]
Conditions	288.15 K	298.15 K	308.15 K	318.15 K	328.15 K
x1 = 0.0276	38.76	37.64	37.53	36.73	35.16
x1 = 0.0786	34.22	33.57	34.04	33.39	32.7
x1 = 0.1661	31.83	30.74	30.98	30.06	28.96
x1 = 0.2701	29.83	29.35	28.94	28.16	27.55
x1 = 0.3741	28.72	27.95	27.68	26.94	26.24
x1 = 0.4687	27.91	27.29	26.7	26.16	25.36
x1 = 0.5385	27.47	26.83	26.27	25.57	25.04
x1 = 0.5921	26.99	26.24	25.85	25.07	24.29
x1 = 0.6345	26.53	26.06	25.62	24.72	24.02
x1 = 0.7511	26	25.85	25.2	24.44	23.84
x1 = 0.9512	25.48	25.1	24.75	24.14	23.12

CCCO [propan-1-ol]
[1]
Conditions	surface tension liquid-gas [mN/m]
288.15 K	23.24
298.15 K	22.5
308.15 K	21.39
318.15 K	20.88
328.15 K	20.18
